Each structure is given as a SMILES string.

This assay concerns the target T1, hα7-wt nAChR (Homo sapiens, UniProt P36544).
T1 construct: expressed in transfected cells
The assay can be described thus: Ca2+ flux imaging (FDSS) (Protocol B), potentiation of the choline response. It is filed as cell-based. The following applies: Ca2+ assay as described in D.1; for EC50: "<5" = activity did not reach a top plateau at maximal concentration; for Emax / Emax at 30 µM: read-out: % Efficacy. As to the method: Ca^2+ Flux Imaging (FDSS) (Protocol B)
• Hanks buffered saline solution (HBSS, Invitrogen, Belgium), supplemented with 10 mM HEPES (Invitrogen, Belgium), CaCl2 to a final concentration of 5 mM, 0.1% Bovine serum albumin (Sigma-Aldrich NV, Belgium). b) Calcium-Sensitive Dye—Fluo-4AM • Fluo-4AM (Molecular Probes, USA) was dissolved in DMSO containing 10% Pluronic acid (Molecular Probes, USA) to give a stock solution which was diluted in assay buffer supplemented with 5 mM probenicid (Sigma, Aldrich NV, Belgium) to give a final concentration of 2 μM. c) 384-Well Plates • Black 384 well plate black/clear plates, PDL pre-coated (Corning, Incorporated, USA) d) Calcium Flux Measurement • A Functional drug screening system (FDSS, Hamamatsu) was used to measure intracellular free-calcium flux signals. Method
Monolayers of hα7-wt nAChR-expressing cells were grown in multi-well plates, in particular black-sided, transparent bottomed 384 well plates coated with poly-D-lysine for 24 hours prior to loading with a fluorescent calcium indicator, in a particular embodiment loading with fluo-4AM for up to 120 minutes.
PAM activity was detected in real time by applying the compounds to be tested to the loaded cells along with a α7 nicotinic receptor agonist during constant monitoring of cellular fluorescence in a FDSS. Compounds giving peak fluorescent responses greater than the response due to agonist alone, were considered to be α7 nAChR PAM's. In a particular embodiment, the α7 nicotinic receptor agonist was choline, a more particular embodiment choline applied at a sub-maximal concentration of 100 μM. In a further setting of the present invention the compounds to be tested were applied prior to the α7 nicotinic receptor agonist, in a particular embodiment up to 10 minutes prior to the agonist.
A control response to choline was calculated on each plate from the difference in peak in fluorescence in wells receiving either choline or assay buffer alone. Compounds of the present invention were tested at a concentration range from 0.01 μM to 30 μM. Compounds were considered to have an interesting activity when they potentiated the choline signal at least with 200% when tested at a concentration of 30 μM (the efficacy of 100 μM choline was defined as 100% in the absence of a PAM). An EC50 (or pEC50) was determined as a concentration relating to half the maximal effect, when a clear sigmoidal curve with top plateau was obtained.
Background: Calcium flux is commonly read through the fluorescence of an indicator in the cells.

T1 sequence (P36544 23-502): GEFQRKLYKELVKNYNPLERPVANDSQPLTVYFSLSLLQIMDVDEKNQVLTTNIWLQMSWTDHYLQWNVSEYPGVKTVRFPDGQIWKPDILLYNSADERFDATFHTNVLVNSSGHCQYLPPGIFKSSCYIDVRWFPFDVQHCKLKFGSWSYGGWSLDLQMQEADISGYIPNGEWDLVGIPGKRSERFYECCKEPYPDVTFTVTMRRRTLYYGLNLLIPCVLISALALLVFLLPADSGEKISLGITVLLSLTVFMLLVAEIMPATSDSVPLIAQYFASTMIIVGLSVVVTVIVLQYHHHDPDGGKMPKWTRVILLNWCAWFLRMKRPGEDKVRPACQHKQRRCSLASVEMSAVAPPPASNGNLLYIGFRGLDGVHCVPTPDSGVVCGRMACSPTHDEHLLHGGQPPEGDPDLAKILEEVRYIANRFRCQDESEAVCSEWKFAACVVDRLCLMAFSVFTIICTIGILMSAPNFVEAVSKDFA

`Cc1cc(-c2cc(Nc3ccc(F)c(C(F)(F)F)c3)nn2C[C@H](C)O)cc(N(C)C)n1` [compound 69]: the EC50 – broadly, the concentration needed to bring the measured effect to its halfway point – was 0.794 µM and the Emax amounted to 400%.
In the case of `CNC(=O)Cn1nc(Nc2cc(F)cc(Cl)c2)cc1-c1ccnc(C)c1` [compound 33], the EC50 is 1.78 µM.
As to `CNC(=O)Cn1nc(Nc2cc(F)c(F)c(F)c2)cc1-c1ccnc(C)c1` [compound 109], the EC50 is 1.78 µM and the Emax is 559%.
With `CNC(=O)Cn1nc(Nc2ccc(F)c(C(F)(F)F)c2)cc1-c1ccc2c(c1)OCCO2` [compound 75], the EC50 is 0.219 µM.
Take `CC[C@H](O)Cn1nc(Nc2cccc(C(F)(F)F)c2)cc1-c1ccnc(COC)c1` [compound 113]: the EC50 was 1.32 µM.
For `CCNC(=O)Cn1nc(Nc2ccc(F)c(F)c2F)cc1-c1cc(C)nc(C)c1` [compound 148], the EC50 is 0.468 µM.
The same measure, in the same setting: for `CCNC(=O)Cn1nc(Nc2cccc(C(F)(F)F)c2)cc1-c1ccc2c(c1)OCCO2` [compound 79] the value was 0.219 µM.
For the compound `Cc1cc(-c2cc(Nc3ccc(F)c(C(F)(F)F)c3)nn2CC[C@H](C)O)ccn1` [compound 49], the EC50 was 1.82 µM and the Emax was found to be 500%.
The corresponding values for `CCNc1cc(-c2cc(Nc3ccc(F)c(F)c3F)nn2C[C@H](C)O)ccn1` [compound 133] are 0.776 µM and 409%.
For the compound `CCNC(=O)Cn1nc(Nc2cccc(OC(F)(F)F)c2)cc1-c1ccnc(C)c1` [compound 37], the EC50 is 1 µM.
As for `Cc1cc(-c2cc(Nc3cccc(Cl)c3F)nn2CC(=O)NC2CC2)cc(C)n1` [compound 169], the EC50 is 0.302 µM and the Emax came to 577%.
For `COc1cccc(-c2cc(Nc3ccc(F)c(F)c3)nn2CCC(=O)N(C)C)c1Cl` [compound 11], the EC50 was 0.145 µM.
Same read-out and setting: to `CNC(=O)Cn1nc(Nc2cccc(OC(F)(F)F)c2)cc1-c1cccnc1` [compound 14] belongs 5.13 µM.
Take `CC[C@H](O)Cn1nc(Nc2cc(OC)cc(C(F)(F)F)c2)cc1-c1cc(C)nc(C)c1` [compound 101]: the EC50 was 0.151 µM.
As to `CCNC(=O)Cn1nc(Nc2ccc(F)c(F)c2)cc1-c1ccncc1` [compound 20], the EC50 is > 10 µM.
Same read-out and setting: to `Cc1cc(-c2cc(Nc3ccc(F)c(F)c3)nn2CCC(=O)N(C)C)cc(Cl)n1` [compound 60] belongs 0.501 µM.
`Cc1cc(-c2cc(Nc3cccc(OC(F)(F)F)c3)nn2CC(=O)NC2CC2)cc(C)n1` [compound 147]: the EC50 was 0.603 µM and the Emax came to 643%.
The corresponding values for `CCNc1cc(-c2cc(Nc3cc(OC)cc(C(F)(F)F)c3)nn2C[C@H](C)O)ccn1` [compound 63] are 3.98 µM and 700%.
As for `CNC(=O)Cn1nc(Nc2ccc(F)c(C(F)(F)F)c2)cc1-c1ccnc(C)c1` [compound 34], the EC50 is 3.39 µM.
As for `CNC(=O)Cn1nc(Nc2cc(OC)cc(C(F)(F)F)c2)cc1-c1ccnc(C)c1C` [compound 50], the EC50 was 6.17 µM and the Emax is 496%.
With `Cc1cc(-c2cc(Nc3ccc(F)c(F)c3F)nn2CC(=O)NC2CCC2)cc(C)n1` [compound 182], the EC50 was 0.182 µM.
Consider `Cc1cc(-c2cc(Nc3cc(F)cc(Cl)c3)nn2C[C@H](C)O)ccn1` [compound 42], for which the EC50 was 1.12 µM and the Emax was determined as 200%.
As to `CNC(=O)Cn1nc(Nc2ccc(F)c(F)c2)cc1-c1ccnc(NC)c1` [compound 61], the EC50 is > 10 µM.
Consider `CN(C)C(=O)CCn1nc(Nc2cccc(F)c2)cc1-c1ccc2c(c1)OCCO2` [compound 82], for which the EC50 was 0.135 µM.
Same read-out and setting: for `CNC(=O)Cn1nc(Nc2ccc3c(c2)OC(F)(F)O3)cc1-c1ccncc1C` [compound 89] the value was > 10 µM.
For the compound `Cc1cc(-c2cc(Nc3cc(F)c(F)c(F)c3)nn2C[C@H](C)O)ccn1` [compound 44], the EC50 is 1.23 µM and the Emax was 400%.
In the same order, the values of `CNC(=O)Cn1nc(Nc2cccc(OC(F)(F)F)c2)cc1-c1cc(C)nc(C)c1` [compound 129] are 0.933 µM and 726%.
In the same order, the values of `Cc1cc(-c2cc(Nc3cccc(OC(F)(F)F)c3)nn2CC(=O)NC2CCC2)cc(C)n1` [compound 180] are 0.372 µM and 768%.
In the same order, the values of `CC[C@H](O)Cn1nc(Nc2cc(OC)cc(C(F)(F)F)c2)cc1-c1ccnc(C)c1Cl` [compound 115] are 1.26 µM and 516%.
In the case of `Cc1cc(-c2cc(Nc3ccc(F)c(C(F)(F)F)c3)nn2CCC(=O)N(C)C)cc(C)n1` [compound 161], the EC50 is 0.24 µM and the Emax worked out at 737%.
As to `CCNC(=O)Cn1nc(Nc2cc(F)c(F)c(F)c2)cc1-c1ccc2c(c1)OCCO2` [compound 78], the EC50 was 0.302 µM.
On to `Cc1cc(-c2cc(Nc3cc(F)c(F)c(F)c3)nn2CC(=O)NC2CC2)cc(C)n1` [compound 172], for which the EC50 was 0.186 µM and the Emax came out at 393%.
As for `CCNC(=O)Cn1nc(Nc2cccc(OC(F)(F)F)c2)cc1-c1cc(C)nc(C)c1` [compound 139], the EC50 is 0.646 µM and the Emax came to 710%.
With `Cc1cc(-c2cc(Nc3ccc(F)c(F)c3F)nn2CC(=O)NC2CC2)ccn1` [compound 116], the EC50 is 1.23 µM and the Emax turned out to be 596%.
In the same order, the values of `CNC(=O)Cn1nc(Nc2cccc(C(F)(F)F)c2)cc1-c1cc(C)nc(C)c1` [compound 117] are 1.48 µM and 835%.
For `CCNC(=O)Cn1nc(Nc2cccc(C(F)(F)F)c2)cc1-c1cccnc1` [compound 18], the EC50 was > 10 µM and the Emax at 30 µM amounted to 592%.
Regarding `CNC(=O)Cn1nc(Nc2cccc(C(F)(F)F)c2)cc1-c1cccnc1` [compound 13], the EC50 was > 10 µM and the Emax at 30 µM amounted to 967%.
For `COc1cc(Nc2cc(-c3ccnc(C)c3C)n(CCC(=O)N(C)C)n2)cc(C(F)(F)F)c1` [compound 52], the EC50 was 0.912 µM.
Consider `Cc1ccnc(-c2cc(Nc3cc(F)cc(F)c3)nn2CCC(=O)N(C)C)c1` [compound 26], for which the EC50 is 2.75 µM and the Emax is 800%.
Consider `CCNC(=O)Cn1nc(Nc2ccc(F)c(C(F)(F)F)c2)cc1-c1ccc2c(c1)OCCO2` [compound 81], for which the EC50 was 0.214 µM.
`Cc1cc(-c2cc(Nc3ccc(F)c(F)c3)nn2CC(=O)NC2CCC2)cc(C)n1` [compound 171]: the EC50 is 0.148 µM and the Emax amounted to 507%.
Consider `Cc1cc(-c2cc(Nc3cc(F)cc(Cl)c3)nn2CCC(=O)N(C)C)ccn1` [compound 41], for which the EC50 was 0.389 µM.
Consider `CCNc1cc(-c2cc(Nc3ccc(F)c(C(F)(F)F)c3)nn2C[C@H](C)O)cc(C)n1` [compound 67], for which the EC50 was 1.38 µM and the Emax amounted to 800%.
Take `CCNC(=O)Cn1nc(Nc2cc(F)cc(Cl)c2)cc1-c1ccnc(C)c1` [compound 39]: the EC50 is 0.776 µM.
On to `Cc1ccnc(-c2cc(Nc3ccc(F)c(F)c3)nn2C[C@H](C)O)c1` [compound 24], for which the 50% effective concentration (EC50) is 2.14 µM and the Emax is 300%.
In the case of `CN(C)C(=O)CCn1nc(Nc2ccc3c(c2)OC(F)(F)O3)cc1-c1ccncc1` [compound 88], the EC50 was 0.309 µM.
On the same count and under the same terms, for `CC[C@H](O)Cn1nc(Nc2cc(F)cc(F)c2)cc1-c1ccnc(Cl)c1` [compound 47] the value was 0.437 µM.
As for `COc1cc(Nc2cc(-c3cc(C)nc(C)c3)n(CC(=O)NC3CC3)n2)cc(C(F)(F)F)c1` [compound 138], the EC50 is 0.617 µM and the Emax was found to be 686%.
`CCNc1cc(-c2cc(Nc3cc(F)cc(C(F)(F)F)c3)nn2C[C@H](C)O)ccn1` [compound 64]: the EC50 was 1.41 µM and the Emax stood at 500%.
`Cc1ccnc(-c2cc(Nc3ccc(F)c(C(F)(F)F)c3)nn2C[C@H](C)O)c1` [compound 25]: the EC50 is 0.933 µM and the Emax amounted to 500%.
For `Cc1cc(-c2cc(Nc3ccc(F)c(F)c3F)nn2CC(=O)NC2CC2)cc(C)n1` [compound 156], the EC50 was 0.38 µM and the Emax stood at 975%.
Regarding `CNC(=O)Cn1nc(Nc2ccc(F)c(C(F)(F)F)c2)cc1-c1cc(C)nc(C)c1` [compound 114], the EC50 is 1.15 µM.
As for `CCNC(=O)Cn1nc(Nc2cc(F)cc(C(F)(F)F)c2)cc1-c1ccncc1C` [compound 31], the EC50 was 2.69 µM.
For `CCNC(=O)Cn1nc(Nc2ccc(F)c(F)c2)cc1-c1cccnc1` [compound 16], the EC50 was > 10 µM.

Values taken from patent publication US8779158B2, “Trisubstituted pyrazoles as acetylcholine receptor modulators” (Janssen Pharmaceutica NV, priority 2008, dated 2014).
